The text below walks through data of US20230172897A1, “METHODS OF TREATING BREAST CANCERS WITH SELECTIVE ANDROGEN RECEPTOR MODULATORS AND ADDITIONAL THERAPEUTIC AGENTS” (VERU, INC., priority 2021, published 2023).

Test [1] has as its system HCI-13 tumors. As to the kind of experiment: Phospho-proteomics (protein array) of HCI-13 PDX. It counts as in vivo, mice. As to the method:
Whole tissue lysates were directly prepared from the tissue sections using a 1:1 mixture of T-PER (Tissue Protein Extraction Reagent; Pierce, Rockford, Ill.) and 2× Tris-Glycine SDS Sample Buffer (Invitrogen, Carlsbad, Calif.) supplemented with 5% 2-mercaptoethanol. Samples were boiled for 8 minutes and stored at −80° C. until arrayed.
Samples and standard curves for internal quality assurance were printed onto nitrocellulose-coated slides (Grace Bio-labs, Bend, Oreg.) using an Aushon 2470 arrayer (Aushon BioSystems, Billerica, Mass.). Selected arrays were used to estimate the amount of protein in each sample using a Sypro Ruby Protein Blot Stain (Molecular Probes, Eugene, Oreg.) protocol following manufacturer's instructions (Pin et al. (2014) Curr Protoc Protein Sci 75, Unit 27 27). Remaining arrays were tested with a single primary antibody using an automated system (Dako Cytomation, Carpinteria, Calif.) as previously described (Baldelli et al. (2015) Oncotarget 6, 32368-32379). Arrays were first incubated with Reblot Antibody stripping solution (Chemicon, Temecula, Calif.), followed by two washes in PBS, and I-block solution (Tropix, Bedford, Mass.) for 4 hours. Arrays were probed with a total of 174 antibodies targeting a wide range of protein kinases and their activation via phosphorylation. Antibodies specificity was tested using standard immunoblotting on a panel of cell lysates. […]
The commercially available Signal Amplification System (CSA; Dako Cytomation) and a streptavidin-conjugated IRDye 680 secondary antibody (LI-COR Biosciences, Lincoln, Nebra.) were used as signal detection methods. Images were acquired on the laser-based PowerScanner (TECAN, Monnedorf, Switzerland), and data were analyzed using the MicroVigene software Version 5.1 (Vigene Tech, Carlisle, Mass.) as previously described (Baldelli et al. (2015) Oncotarget 6, 32368-32379). […]

In test [2] the test system is HCI-007 tumors (ER-positive, PR-positive, HER2-positive, AR-positive). The test can be described thus: HCI-007 (HCI-7) patient derived xenograft in NSG mice. It counts as in vivo. How it is done: HCI-007 tumor pieces (1 mm^3) were implanted surgically (one per mouse) under the skin on the flanks of NSG mice. Simultaneously, 17β-estradiol pellet (Innovative Research of America) was implanted surgically under the skin of each mouse. Tumors were allowed to grow and reach approximately 100 mm^3 volume (1*W*W*0.526). […] Tumor volume was measured weekly and represented as % change in tumor volume (FIG. 32). Mice were sacrificed and tumors stored for further analysis.
All animal protocols were approved by The University of Tennessee Health Science Center (UTHSC) Institutional Animal Care and Use Research Committee. Xenograft experiments were performed as previously published (Narayanan et al. (2014) PLoS One 9, e103202). Briefly, 3 million MCF-7 cells were suspended in 0.05 ml MEM+10% FBS and 0.05 ml Matrigel/nude mouse and were injected subcutaneously. Once the tumor size reached 100-200 mm^3, the animals were randomized and treated orally with the indicated drugs formulated in DMSO:PEG-300 (15:85). HCI-7, HCI-9, and HCI-13 PDXs were gifts kindly donated by Dr. Alana Welm (Huntsman Cancer Institute, Salt Lake City, Utah). […] Tumor volume was measured twice weekly for MCF-7 xenograft and once or twice weekly for HCI PDXs. At the end of the study, animals were sacrificed and tumors were excised, weighed, and stored for various analyses.
From the several PDXs available, three AR-positive PDXs were identified, based on gene expression profile. […] The enzalutamide dose was selected based on previous published experiments (Park et al. (2016) Cancer Invest 34, 517-520; Pollock et al. (2016) Nat Chem Biol 12, 795-801) as well as from internal experiments conducted in prostate cancer xenografts and in Hershberger studies.
(In general: A xenograft is tissue or cells of one species grown in another, often human tumour cells in immunodeficient mice.)

Test [3] is described as follows: Phase 3 trials, muscle wasting in non-small cell lung cancer. The conditions noted are these: 3 mg daily. It counts as in vivo, human. An excerpt: These include: 1. Protocol G100401, a Phase 1 single ascending dose study in 96 healthy, young, male volunteers; 2. Protocol G100402, a Phase 1 multiple ascending dose study in 50 healthy, young, male volunteers, and 23 elderly male volunteers with truncal obesity; 3. Protocol G100503, a Phase 1 single dose pharmacokinetic study to assess the effect of a dosage regimen that simulates a sustained release formulation to an immediate release formulation in 18 healthy, young male volunteers and 18 postmenopausal women; 4. Protocol G100506, a Phase 1 single dose pharmacokinetic study to assess the relative bioavailability of a 3 mg hard shell capsule formulation to be used during continued clinical development and to assess the effect of food on the pharmacokinetics of the 3 mg softgel formulation in 27 healthy, young, male volunteers; 5. Protocol 006, a Phase 1 single dose and multiple dose pharmacokinetic study in 24 postmenopausal, Japanese women; 6. Protocol G200501, a Phase 2 study in 60 postmenopausal women and 60 elderly men to assess lean body mass and physical function; 7. Protocol 003, a Phase 1b study in 44 postmenopausal women; 8.

Entries after “also recorded” stand apart in the source; their conditions may differ.

On to `C[C@](O)(COc1ccc(C#N)cc1)C(=O)Nc1ccc(C#N)c(C(F)(F)F)c1` [Formula IX, (S)—N-(4-Cyano-3-(trifluoromethyl)phenyl)-3-(4-cyanophenoxy)-2-hydroxy-2-methylpropanamide], for which, in test [1], the “expression of proliferation marker Ki67” value is on record as “inhibited the expression”; the “phosphorylation of oncogenic proteins (pERK, PKC z, RSK3, Ezrin, BCL2, ELF4G, ER)” value was “inhibited the phosphorylation”; the “phosphorylation of tumor suppressor proteins (p53, p27, ACC, AR)” value is listed as “increased the phosphorylation”. Also, in test [2] (10 mg/kg oral), the “HCI-7 tumor weights at end of study” value is reported as “significantly smaller”. Moreover, the HCI-7 tumor growth entry in test [2] (Formula IX 10 mg/kg, enzalutamide 20 or 30 mg/kg, oral) is listed as “inhibited significantly; also recorded: grew slowly”. Further, the lean body mass result in test [3] is listed as “increased”.
